Assay results as given in US12479843B2, “Spiro ring-containing quinazoline compounds” (WIGEN BIOMEDICINE TECHNOLOGY (SHANGHAI) CO., LTD., priority 2019, dated 2025).

What was measured:
pERK level in H358 cells = assay: pERK and ERK protein content assay in H358 cells (ELISA); format: cell-based; conditions: Homo sapiens, NCI-H358, compound 1 μM, 24 h, pERK/ERK ratio compared with DMSO group, read-out: Inhibition rate (%) of pERK level
In short: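 Percent inhibition of pERK relative to DMSO, from the ELISA pERK/ERK ratio in lysed H358 cells. Compound applied at 1 μM for 24 h after one day of growth.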

H358 cells = assay: Antiproliferative activity against H358 cells (Cell Titer Glow, ultra-low attachment plate); format: cell-based; conditions: Homo sapiens, NCI-H358, 72 h, 96-well ultra-low attachment plate, three days after addition of compound, Cell Titer Glow
Experimental: 2500 H358 cells were seeded in a 96-well ultra-low attachment plate (corning, 7007). After one day of growth, a serially diluted compound (a maximum concentration of 5 μM, 5-fold dilution, a total of five doses) was added. Three days after the addition of the compound, Cell Titer Glow (Promega, G9681) was added to evaluate pellet growth, and the IC50 value was calculated.

| SMILES | inhibition at 1 µM (pERK level in H358 cells) | IC50 (H358 cells) |
| --- | --- | --- |
| C=CC(=O)N1CC2(CCN(c3nc(N4CCC5(CC4)CC(N)C5)nc4c(OCC(F)(F)F)c(-c5c(C)ccc6[nH]ncc56)c(C5CC5)cc34)CC2)C1 [Compound 162] | > 90% | < 0.3 µM |
| C=CC(=O)N1CC2(CCN(c3nc(N4CC[C@@H](N5CCC(OC)CC5)C4)nc4c(OCC(F)(F)F)c(-c5c(C)ccc6[nH]ncc56)c(C5CC5)cc34)CC2)C1 [Compound 214] | 50 to 90% | 0.3 to 1 µM |
| C=CC(=O)N1CC2(CCN(c3nc(OC4CCN(CCOC)CC4)nc4c(N5CC(F)(F)C5)c(-c5c(C)ccc6[nH]ncc56)c(C5CC5)cc34)CC2)C1 [Compound 9] | > 90% | < 0.3 µM |
| C=CC(=O)N1CC2(CCN(c3nc(N4CC[C@@H](N5C6CCC5CC6)C4)nc4c(OCC(F)(F)F)c(-c5c(C)ccc6[nH]ncc56)c(C5CC5)cc34)CC2)C1 [Compound 303] | > 90% | < 0.3 µM |
| C=CC(=O)N1CC2(CCN(c3nc(N(C)CCN4CC[C@H](OC)C4)nc4c(OCC(F)(F)F)c(-c5c(C)ccc6[nH]ncc56)c(C5CC5)cc34)CC2)C1 [Compound 235] | > 90% | < 0.3 µM |
| C=C(F)C(=O)N1CC2(CCN(c3nc(OC4CCN(CCOC)CC4)nc4c(OCC(F)(F)F)c(-c5c(C)ccc6[nH]nnc56)c(C5CC5)cc34)CC2)C1 [Compound 40] | > 90% | < 0.3 µM |
| C=CC(=O)N1CC2(CCN(c3nc(N4CCC5(CCN(C)C5)C4)nc4c(OCC(F)(F)F)c(-c5c(C)ccc6[nH]ncc56)c(C5CC5)cc34)CC2)C1 (stereo not drawn) [Compound 159] | > 90% | < 0.3 µM |
| C=CC(=O)N1CC2(CCN(c3nc(N4CC5(CCN(C)C5)C4)nc4c(OCC(F)(F)F)c(-c5c(C)ccc6[nH]ncc56)c(C5CC5)cc34)CC2)C1 [Compound 73] | > 90% | < 0.3 µM |
| C=C(F)C(=O)N1CC2(CCN(c3nc(OC4CC5(C4)CN(C)C5)nc4c(OCC(F)(F)F)c(-c5c(C)ccc6[nH]ncc56)c(C5CC5)cc34)CC2)C1 [Compound 124] | > 90% | < 0.3 µM |
| C=CC(=O)N1CC2(CCN(c3nc(OC4CCS(=O)(=O)CC4C)nc4c(OCC(F)(F)F)c(-c5c(C)ccc6[nH]ncc56)c(C5CC5)cc34)CC2)C1 (stereo not drawn) [Compound 316] | > 90% | < 0.3 µM |
| C=C(F)C(=O)N1CC2(CCN(c3nc(N4CCC5(CC4)CN(CCOC)C5)nc4c(OCC(F)(F)F)c(-c5c(C)ccc6[nH]ncc56)c(C5CC5)cc34)CC2)C1 [Compound 104] | 50 to 90% | 0.3 to 1 µM |
| C=CC(=O)N1CC2(CCN(c3nc(N4CC(N5CC[C@@H](C)C5)C4)nc4c(OCC(F)(F)F)c(-c5c(C)c(C)cc6[nH]ncc56)c(C5CC5)cc34)CC2)C1 [Compound 325] | > 90% | < 0.3 µM |
| C=CC(=O)N1CC2(CCN(c3nc(OC4CN(C5COC5)C4)nc4c(OCC(F)(F)F)c(-c5c(C)ccc6[nH]ncc56)c(C5CC5)cc34)CC2)C1 [Compound 111] | > 90% | < 0.3 µM |
| C=CC(=O)N1CC2(CCN(c3nc(N4CC5(CN(C)C5)C4)nc4c(OCC(F)(F)F)c(-c5c(C)ccc6[nH]ncc56)c(C5CC5)cc34)CC2)C1 [Compound 69] | > 90% | < 0.3 µM |
| C=C(F)C(=O)N1CC2(CCN(c3nc(OC4CCN(C5COC5)CC4)nc4c(OCC(F)(F)F)c(-c5c(C)ccc6[nH]ncc56)c(C5CC5)cc34)CC2)C1 [Compound 62] | > 90% | < 0.3 µM |
| C=CC(=O)N1CC2(CCN(c3nc(OC4CCN(CCOC)CC4)nc4c(OCC(F)(F)F)c(-c5c(F)cccc5F)c(C5CC5)cc34)CC2)C1 [Compound 53] | > 90% | < 0.3 µM |
| C=CC(=O)N1CC2(CCN(c3nc(OC4CCN(CCOC)CC4)nc4c(OCC(F)(F)F)c(-c5c(C)ccc6[nH]ncc56)c(C)cc34)CC2)C1 [Compound 13] | > 90% | 0.3 to 1 µM |
| C=CC(=O)N1CC2(CCN(c3nc(N4CCC5(CCN(C)CC5)C4)nc4c(OCC(F)(F)F)c(-c5c(C)ccc6[nH]ncc56)c(C5CC5)cc34)CC2)C1 [Compound 161] | > 90% | < 0.3 µM |
| C=CC(=O)N1CC2(CCN(c3nc(N4CC[C@@H](N5CC(OC)C5)C4)nc4c(OCC(F)(F)F)c(-c5c(C)ccc6[nH]ncc56)c(C5CC5)cc34)CC2)C1 [Compound 204] | > 90% | 0.3 to 1 µM |
| C=CC(=O)N1CC2(CCN(c3nc(N4CC(N5CC[C@H](N(C)C)C5)C4)nc4c(OCC(F)(F)F)c(-c5c(C)ccc6[nH]ncc56)c(C5CC5)cc34)CC2)C1 [Compound 255] | > 90% | < 0.3 µM |
| C=CC(=O)N1CC2(CCN(c3nc(N4CC5(C4)[C@H](F)CCN5C)nc4c(OCC(F)(F)F)c(-c5c(C)ccc6[nH]ncc56)c(C5CC5)cc34)CC2)C1 [Compound 274] | > 90% | < 0.3 µM |

| SMILES | inhibition at 1 µM (pERK level in H358 cells) | IC50 (H358 cells) |
| --- | --- | --- |
| C=CC(=O)N1CC2(CCN(c3nc(N4CCC5(CC4)CN(CCOC)C5)nc4c(OCC(F)(F)F)c(-c5c(C)ccc6[nH]ncc56)c(C5CC5)cc34)CC2)C1 [Compound 103] | > 90% | < 0.3 µM |
| C=CC(=O)N1CC2(CCN(c3nc(N4CC5(C4)[C@@H](F)CCN5C)nc4c(OCC(F)(F)F)c(-c5c(C)ccc6[nH]ncc56)c(C5CC5)cc34)CC2)C1 [Compound 273] | > 90% | < 0.3 µM |
| C=CC(=O)N1CC2(CCN(c3nc(N4CC(N(C)CC(F)(F)F)C4)nc4c(OCC(F)(F)F)c(-c5c(C)ccc6[nH]ncc56)c(C5CC5)cc34)CC2)C1 [Compound 167] | > 90% | 0.3 to 1 µM |
| C=CC(=O)N1CC2(CCN(c3nc(N(C)CCN4CC[C@H](F)C4)nc4c(OCC(F)(F)F)c(-c5c(C)ccc6[nH]ncc56)c(C5CC5)cc34)CC2)C1 [Compound 236] | > 90% | < 0.3 µM |
| C=C(F)C(=O)N1CC2(CCN(c3nc(N4CC(N(C)C)C4)nc4c(OCC(F)(F)F)c(-c5c(C)ccc6[nH]ncc56)c(C5CC5)cc34)CC2)C1 [Compound 139] | > 90% | < 0.3 µM |
| C=CC(=O)N1CC2(CCN(c3nc(OC4CCN(CCOC)CC4)nc4c(N(C)CC(F)(F)F)c(-c5c(C)ccc6[nH]ncc56)c(C5CC5)cc34)CC2)C1 [Compound 7] | 50 to 90% | 0.3 to 1 µM |
| C=CC(=O)N1CC2(CCN(c3nc(N4CC5(CC(N(C)C)C5)C4)nc4c(OCC(F)(F)F)c(-c5c(C)ccc6[nH]ncc56)c(C5CC5)cc34)CC2)C1 [Compound 286] | > 90% | < 0.3 µM |
| C=CC(=O)N1CC2(CCN(c3nc(OC4CCN(CCOC)CC4)nc4c(OCC(F)(F)F)c(-c5cc(O)ccc5F)c(C5CC5)cc34)CC2)C1 [Compound 57] | > 90% | < 0.3 µM |
| C=CC(=O)N1CC2(CCN(c3nc(N4CC(N5CCC5)C4)nc4c(OCC(F)(F)F)c(-c5c(C)ccc6[nH]ncc56)c(C5(C)CC5)cc34)CC2)C1 [Compound 322] | > 90% | < 0.3 µM |
| C=CC(=O)N1CC2(CCN(c3nc(OC4CCN(CCOC)CC4)nc4c(OCC(F)(F)F)c(-c5ccccc5F)c(C5CC5)cc34)CC2)C1 [Compound 51] | > 90% | < 0.3 µM |
| C=CC(=O)N1CC2(CCN(c3nc(N4CC[C@@H](N5CC[C@@H](OC)C5)C4)nc4c(OCC(F)(F)F)c(-c5c(C)ccc6[nH]ncc56)c(C5CC5)cc34)CC2)C1 [Compound 198] | > 90% | < 0.3 µM |
| C=CC(=O)N1CC2(CCN(c3nc(N4CC[C@@H](N5CCCCC5)C4)nc4c(OCC(F)(F)F)c(-c5c(C)ccc6[nH]ncc56)c(C5CC5)cc34)CC2)C1 [Compound 208] | > 90% | < 0.3 µM |
| C=CC(=O)N1CC2(CCN(c3nc(N4CC(N5CCCC5)C4)nc4c(OCC(F)(F)F)c(-c5c(C)c(C)cc6[nH]ncc56)c(C=C)cc34)CC2)C1 [Compound 222] | > 90% | < 0.3 µM |
| C=CC(=O)N1CC2(CCN(c3nc(N4CC[C@@H](N5CC[C@H](OC)C5)C4)nc4c(OCC(F)(F)F)c(-c5c(C)ccc6[nH]ncc56)c(C5CC5)cc34)CC2)C1 [Compound 196] | > 90% | < 0.3 µM |
| C=C(F)C(=O)N1CC2(CCN(c3nc(N4CC5(CN(C)C5)C4)nc4c(OCC(F)(F)F)c(-c5c(C)ccc6[nH]ncc56)c(C5CC5)cc34)CC2)C1 [Compound 70] | > 90% | 0.3 to 1 µM |
| C=CC(=O)N1CC2(CCN(c3nc(N4CC[C@H](N5CCC(F)(F)C5)C4)nc4c(OCC(F)(F)F)c(-c5c(C)ccc6[nH]ncc56)c(C5CC5)cc34)CC2)C1 [Compound 199] | > 90% | 0.3 to 1 µM |
| C=C(F)C(=O)N1CC2(CCN(c3nc(OC4CN(CCOC)C4)nc4c(OCC(F)(F)F)c(-c5c(C)ccc6[nH]ncc56)c(C5CC5)cc34)CC2)C1 [Compound 114] | > 90% | < 0.3 µM |
| C=CC(=O)N1CC2(CCN(c3nc(N4CC(N5CC(OCC)C5)C4)nc4c(OCC(F)(F)F)c(-c5c(C)ccc6[nH]ncc56)c(C5CC5)cc34)CC2)C1 [Compound 170] | 50 to 90% | 0.3 to 1 µM |
| C=CC(=O)N1CC2(CCN(c3nc(N4CC[C@H](N5CC(C)C5)C4)nc4c(OCC(F)(F)F)c(-c5c(C)ccc6[nH]ncc56)c(C5CC5)cc34)CC2)C1 [Compound 296] | > 90% | < 0.3 µM |
| C=CC(=O)N1CC2(CCN(c3nc(N4CC(N5CCCC5)C4)nc4c(OCC(F)(F)F)c(-c5c(C)ccc6[nH]ncc56)c(C5(C)CC5)cc34)CC2)C1 [Compound 323] | > 90% | < 0.3 µM |
| C=C(F)C(=O)N1CC2(CCN(c3nc(OC4CCN(CCOC)CC4)nc4c(OCC(F)(F)F)c(-c5ccccc5F)c(C5CC5)cc34)CC2)C1 [Compound 52] | > 90% | < 0.3 µM |
